According to patent US12391660B2, “Heteroaromatic acetamide derivative, and preparation and use thereof” (Hangzhou Westan Pharmaceutical Technology Co., Ltd, priority 2019, dated 2025):

Each compound was assayed against human TRPA1 (Homo sapiens (Human), UniProt O75762) (assay: FLIPR assay of inhibitory activity on human TRPA1 (calcium ion flux fluorescence)). Settings: HEK293 cells stably expressing human TRPA1.
human TRPA1, sequence (O75762 whole entry): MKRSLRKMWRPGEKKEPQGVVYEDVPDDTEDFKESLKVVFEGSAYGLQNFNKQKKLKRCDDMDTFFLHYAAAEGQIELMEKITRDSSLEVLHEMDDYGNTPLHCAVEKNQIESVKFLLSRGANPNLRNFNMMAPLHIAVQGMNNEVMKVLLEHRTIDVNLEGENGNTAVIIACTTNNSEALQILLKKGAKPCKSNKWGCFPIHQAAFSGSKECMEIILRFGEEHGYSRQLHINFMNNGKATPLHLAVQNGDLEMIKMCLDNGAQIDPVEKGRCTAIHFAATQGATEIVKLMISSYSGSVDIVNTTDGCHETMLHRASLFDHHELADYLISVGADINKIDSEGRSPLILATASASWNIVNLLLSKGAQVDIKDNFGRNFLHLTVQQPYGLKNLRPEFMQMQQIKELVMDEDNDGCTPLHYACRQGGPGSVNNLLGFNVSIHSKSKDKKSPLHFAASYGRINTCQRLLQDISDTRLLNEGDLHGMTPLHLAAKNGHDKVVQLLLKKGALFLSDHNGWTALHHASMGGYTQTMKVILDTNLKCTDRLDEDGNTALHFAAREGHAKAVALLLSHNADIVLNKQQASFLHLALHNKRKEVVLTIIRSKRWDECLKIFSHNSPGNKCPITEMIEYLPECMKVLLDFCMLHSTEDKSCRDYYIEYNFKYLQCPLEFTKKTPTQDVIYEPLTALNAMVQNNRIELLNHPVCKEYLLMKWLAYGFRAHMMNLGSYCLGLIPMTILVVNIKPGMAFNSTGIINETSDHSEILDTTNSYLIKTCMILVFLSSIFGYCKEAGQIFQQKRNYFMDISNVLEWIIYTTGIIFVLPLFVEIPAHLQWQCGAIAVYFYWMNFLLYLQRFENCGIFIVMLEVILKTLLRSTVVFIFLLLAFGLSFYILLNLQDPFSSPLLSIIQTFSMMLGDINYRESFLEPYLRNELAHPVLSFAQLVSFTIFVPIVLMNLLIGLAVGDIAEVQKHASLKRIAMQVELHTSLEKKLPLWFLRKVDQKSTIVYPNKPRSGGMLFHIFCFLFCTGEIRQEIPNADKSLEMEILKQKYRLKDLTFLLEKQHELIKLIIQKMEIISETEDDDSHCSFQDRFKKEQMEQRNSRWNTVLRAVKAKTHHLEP
Type: cell-based
Protocol: 1. FLIPR Assay of Inhibitory Activity on Human TRPA1
A calcium ion flux fluorescence method (FLIPR assay) was adopted to measure the inhibitory activity of compounds on human TRPA1 channel. The literature reports of Lee and Chen et al. may be referred to for the method [Lee et al. Br J Pharmacol 2008, 153 (8): 1739-1749] [Chen et al. Pain 2011, 152(5):1165-72].
A HEK293 recombinant cell strain stably expressing human TRPA1 (Creative Biogene, NY) was cultured in DMEM (Thermo Fisher Scientific, Shanghai) medium (containing 10% calf serum, 5 μg/ml Blasticidin and 400 ug/ml G418). The incubator was under a condition of 37° C. and air humidity with 5% CO2.
TRPA1 cells were seeded in a 96-well analysis plate at a density of 75,000 cells per well (100 ul/well), and cultured overnight in an incubator at 37° C. and 5% CO2. On the second day, incubation was continued overnight under the same condition to induce the expression of TRPA1 after the culture medium in each well was poured out and a fresh supplement with the same culture medium containing 0.1 μg/ml Tetracycline was added. The further next day, the culture medium was pour out, a DMEM culture solution (also containing 2.5 mM Probenicid) containing 5 μM Fluo-4 AM (Molecular Probes) was added to each well, and incubation was conducted at 37° C. for 1 hour.
The compound was dissolved in 100% DMSO to prepare a 30 mM stock solution which was stored at −20° C. On the day of use, the compound stock solution was thawed at room temperature. Each compound was subjected to 1:5 serial dilution using DMSO medium at a starting concentration of 30 μM with 9 concentration points on a 96-well plate. Each compound was diluted in duplicate for testing. Ruthenium Red was used as the positive control compound and the same dilution was carried out at a starting concentration of 3 μM.
The cell analysis plate was placed in an FLIPR instrument […], and the compound in the compound plate was added to the corresponding hole on the cell analysis plate (First addition) via an automatic program, and the calcium ion fluorescence signal was recorded to determine whether the compound had agonistic activity. After 10 minutes, CaCl2 (Second addition) was added a final concentration of 3 mM to each well to stimulate intracellular calcium flux signals. Ca^++-dependent fluorescence signal was monitored continuously at 538 nm wavelength to analyze the inhibitory activity of the compounds.
The data was collected and analyzed using a FLIPR program. The fluorescence peak value was used to evaluate the inhibitory (or agonistic) activity of the compounds at each concentration. EXCEL and PRISM programs were used to calculate the IC50 value of the compounds.
`CC(C)(C)C1CCN(C(=O)C2(Nc3ccc(C#N)cc3)CCC2)CC1` [Compound 37, 4-((1-(4-(tert-butyl)piperidine-1-carbonyl)cyclobutyl)amino) benzonitrile] was tested, and the IC50 was 5210 nM. Work on `CC(C)(C)C1CCN(C(=O)C2(Nc3ccc(C#N)cc3)CC2)CC1` [Compound 38, 4-((1-(4-(tert-butyl)piperidine-1-carbonyl)cyclopropyl)amino)benzonitrile] yielded an IC50 of 10200 nM. Compound `CC(C)(C)C1CCN(C(=O)C2(Nc3nc(C#N)cs3)CCCC2)CC1` [Compound 39, 2-((1-(4-(tert-butyl)piperidine-1-carbonyl)cyclopentyl)amino) thiazole-4-carbonitrile] has an IC50 of 1080 nM. Work on `CC(C)(C)C1CCN(C(=O)C2(Nc3ncc(C#N)s3)CCCC2)CC1` [Compound 40, 2-((1-(4-(tert-butyl)piperidine-1-carbonyl)cyclopentyl)amino)thiazole-5-carbonitrile] yielded an IC50 of 950 nM. With `CC(C)(C)C1CCN(C(=O)C2(Nc3nc(C#N)co3)CCCC2)CC1` [Compound 41, 2-((1-(4-(tert-butyl)piperidine-1-carbonyl)cyclopentyl)amino) oxazole-4-carbonitrile] the IC50 was 3070 nM. Compound `Cn1cc(NC2(C(=O)N3CCC(C(C)(C)C)CC3)CCCC2)nc1C#N` [Compound 42, 4-((1-(4-(tert-butyl)piperidine-1-carbonyl)cyclopentyl)amino) -1-methyl-1H-imidazole-2-carbonitrile] has an IC50 of 4650 nM. With `CC(C)(C)C1CCN(C(=O)C(Nc2ccc(C#N)cc2)C(C)(C)C)CC1` (stereo not drawn) [Compound 43, 4-((1-(4-(tert-butyl)piperidine-1-carbonyl)tert-butyl)amino) benzonitrile] the IC50 was 91 nM. In the case of `CC(C)(C)C1CCN(C(=O)C2(Nc3ccc(C(F)(F)F)cc3)CCCC2)CC1` [Compound 45], the IC50 is reported as 72 nM. `CC(C)(C)C1CCN(C(=O)C2(Nc3ccc(Cl)cc3)CCCC2)CC1` [Compound 46, 4-((1-(4-(tert-butyl)piperidine-1-carbonyl)cyclopentyl)amino) chlorobenzene] was tested, and the IC50 was 108 nM. `N#Cc1ccc(OC2(C(=O)N3CCN(c4cccc(C(F)(F)F)n4)CC3)CCCC2)cc1` [Compound 47, 4-((1-(4-(6-(trifluoromethyl)pyridin-2-yl)piperazine-1-carbonyl)cyclopentyl)oxy)benzonitrile] was tested, and the IC50 was 38 nM. `Cc1cccc(N2CCN(C(=O)C3(Oc4ccc(C#N)cc4)CCCC3)CC2)c1` [Compound 48, 4-((1-(4-(m-methylphenyl)piperazine-1-carbonyl)cyclopentyl)oxy)benzonitrile] was tested, and the IC50 was 65 nM. In the case of `N#Cc1ccc(OC2(C(=O)N3CCN(c4ccc(C(F)(F)F)cc4)CC3)CCCC2)cc1` [Compound 49], the IC50 is reported as 325 nM. `CC(C)(C)C(Oc1ccc(C#N)cc1)C(=O)N1CCN(c2cccc(C(F)(F)F)n2)CC1` (stereo not drawn) [Compound 51] was tested, and the IC50 was 182 nM. `N#Cc1ccc(OC2(C(=O)N3CCN(c4ccc(C(F)(F)F)nn4)CC3)CCCC2)cc1` [Compound 52, 4-((1-(4-(6-(trifluoromethyl)pyridazin-3-yl)piperazine-1-carbonyl)cyclopentyl)oxy)ben zonitrile] was tested, and the IC50 was 465 nM. Compound `O=C(N1CCN(c2ccc(C(F)(F)F)nn2)CC1)C1(Oc2ccc([N+](=O)[O-])cc2)CCCC1` [Compound 53, 4-((1-(4-(6-(trifluoromethyl)pyridazin-3-yl)piperazine-1-carbonyl)cyclopentyl)oxy)nitro benzene] has an IC50 of 862 nM. `N#Cc1ccc(OC2(C(=O)N3CC4CCC3CN4c3cccc(C(F)(F)F)n3)CCCC2)cc1` (stereo not drawn) [Compound 55, 4-((1-(5-(6-(trifluoromethyl)pyridin-2-yl)-2,5-diazabicyclo [2.2.2]octane-2-carbonyl)cyclopentyl)oxy)benzonitrile] was tested, and the IC50 was 91 nM. Compound `CC(C)(C)C1CCN(C(=O)C2(Oc3ccc(C#N)cc3)CCCC2)CC1` [Compound 56, 4-((1-(4-(tert-butyl)piperidine-1-carbonyl)cyclopentyl)oxy) benzonitrile] has an IC50 of 76 nM. `CC(C)(C)N1CCN(C(=O)C2(Oc3ccc(C#N)cc3)CCCC2)CC1` [Compound 57, 4-((1-(4-(tert-butyl)piperazine-1-carbonyl)cyclopentyl)oxy) benzonitrile] gave an IC50 of 51 nM.
